Converted amounts (≈) assume the structure as drawn. Read-outs that look alike come from different tables or passages of the source.

The values below come from patent US8779141B2, “Viral inhibitors” (Gilead Sciences, Inc., priority 2002, dated 2014).

Data set [1] in a line: Proliferation of exponentially growing Huh-5-2 cells (MTS). Format: cell-based. To be noted: human, exponentially growing Huh-5-2 cells (HCV replicon cell line); Table 11; inhibition of proliferation of exponentially growing Huh-5-2 cells by 50%. The method, then: (§1) Cells were seeded at a density of 7000 cells per well in 96 well View Plate™ (Packard) in medium containing the same components as described above, except for G418. Cells were allowed to adhere and proliferate for 24 hr. At that time, culture medium was removed and serial dilutions of the test compounds were added in culture medium lacking G418. Interferon alfa 2a (500 IU) was included as a positive control. Plates were further incubated at 37° C. and 5% CO2 for 72 hours. Replication of the HCV replicon in Huh-5 cells results in luciferase activity in the cells. Luciferase activity is measured by adding 50 μl of 1× Glo-lysis buffer (Promega) for 15 minutes followed by 50 ul of the Steady-Glo Luciferase assay reagent (Promega). Luciferase activity is measured with a luminometer and the signal in each individual well is expressed as a percentage of the untreated cultures. […] Instead the density of the culture is measured by means of the MTS method (Promega).
For orientation: Replicon systems follow genome replication, usually without infectious particles.

Data set [2] in a line: Cytostatic effect on exponentially growing MDBK cells (MTS). It is filed as cell-based, Bovine. Particulars: bovine; Table 9; reduction of growth of exponentially growing MDBK cells by 50%; mean of 2-5 determinations. The method, then: (§2) Madin-Darbey Bovine Kidney (MDBK) cells were maintained in Dulbecco's modified Eagle medium (DMEM) supplemented with BVDV-free 5% fetal calf serum ([…]) at 37° C. in a humidified, 5% CO2 atmosphere. […] Vero cells were maintained in the same way as MDBK cells. […] The effect of the drugs on exponentially growing MDBK cells was assessed as follows. Cells were seeded at a density of 5000 cell/well in 96 well plates in MEM medium (Gibco) supplemented with 10% fetal calf serum, 2 mM L-glutamine (Life Technologies) and bicarbonate (Life Technologies). […] Cultures were then again further incubated for 3 days after which the effect on cell growth was quantified by means of the MTS method (Promega).

The next data set concerns BVDV-1 (strain PE515). Kind of data set: Anti-BVDV assay, virus-induced cytopathic effect in MDBK cells (MTS). Format: cell-based, Bovine Viral Diarrhea Virus. Particulars: reduction of virus induced cytopathic effect in MDBK cells by 50%. Here is the method: (§3) Madin-Darbey Bovine Kidney (MDBK) cells were maintained in Dulbecco's modified Eagle medium (DMEM) supplemented with BVDV-free 5% fetal calf serum (DMEME-FCS) at 37° C. in a humidified, 5% CO2 atmosphere. BVDV-1 (strain PE515) was used to assess the antiviral activity in MDBK cells. Vero cells were maintained in the same way as MDBK cells. Vero cells were infected with Coxsackie B3 virus (strain Nancy).
Ninety-six-well cell culture plates were seeded with MDBK cells in DMEM-FCS so that cells reached 24 hr later confluency. Then medium was removed and serial 5-fold dilutions of the test compounds were added in a total volume of 100 ul, after which the virus inoculum (100 ul) was added to each well. […] Uninfected cells and cells receiving virus without compound were included in each assay plate. After 5 days, medium was removed and 90 μl of DMEM-FCS and 10 ul of MTS/PMS solution (Promega) was added to each well. Following a 2 hr incubation period at 37° C. the optical density of the wells was read at 498 nm in a microplate reader.

The test system of data set [3] is HCV replicon in Huh-5-2 cells. Description: Anti-HCV replicon assay, luciferase activity in Huh-5-2 cells. Particulars: Hepatitis C virus, Table 11, inhibition of luciferase activity in the replicon system by 50%. It is filed as cell-based. The method, then:
as §1

In data set [4] the test system is HCV replicon (RNA) synthesis in Huh-5-2 cells. Kind of data set: Quantitative analysis of HCV replicon RNA by Taqman real-time RT-PCR in Huh-5-2 cells. Format: cell-based, Hepatitis C Virus. To be noted: for Delta CT: higher value = more profound inhibition of viral RNA synthesis; for CT: real-time RT-PCR, untreated 28.86 ± 0.04. Here is the method: Replicon cells were plated at 7.5×10^3 cells per well in a 96-well plate plates at 37° C. and 5% CO2 in Dulbecco's modified essential medium containing 10% fetal calf serum, 1% nonessential amino acids and 1 mg/ml Geneticin. After allowing 24 h for cell attachment, different dilutions of compound were added to the cultures. Plates were incubated for 5 days, at which time RNA was extracted using the Qiamp Rneazyi Kit (Qiagen, Hilden, Germany). […] After initial activation of uracil-N-glycosylase at 50° C. for 2 minutes, RT was performed at 60° C. for 30 minutes, followed by inactivation of uracil-N-glycosylase at 95° C. for 5 minutes. Subsequent PCR amplification consisted of 40 cycles of denaturation at 94° C. for 20 seconds and annealing and extension at 62° C. for 1 minute in an ABI 7700 sequence detector. For each PCR run, negative template and positive template samples were used. The cycle threshold value (Ct-value) is defined as the number of PCR cycles for which the signal exceeds the baseline, which defines a positive value. The sample was considered to be positive if the Ct-value was <50. Results are expressed as genomic equivalents (GE).

A further data set concerns MDBK cells. Description: Cytostatic effect on exponentially growing MDBK cells (MTS). It is filed as cell-based, Bovine. Particulars: for MTC: Table 10, mean toxic concentration, reduces growth of exponentially growing MDBK cells by 50%. The method, then:
as §2

The test system of the next data set is Vero cells. Description: Metabolism of confluent Vero cells (MTS). It is filed as cell-based. To be noted: Table 13; reduction of metabolism of confluent Vero cells by 50%, MTS method. Here is the method:
as §3
(§4) Ninety-six-well cell culture plates were seeded with Vero cells in DMEM medium containing 10 fetal calf serum (FCS) so that cells reached confluency 24-48 hr later. Medium was then removed and serial 5-fold dilutions of the test compounds were added in a total volume of 100 ul, after which the virus inoculum (100 μl) was added to each well. […] Uninfected cells and cells receiving virus without compound were included in each asay plate. After 5 days, the medium was removed and 90 μl of DMEM-FCS and 10 μl of MTS/PMS solution (Promega) was added to each well. Following a 2 hr incubation period at 37° C., the optical density of the wells was read at 498 nm in a microplate reader. The 50% effective concentration (EC50) value was defined as the concentration of compound that protects 50% of the cell monolayer from virus-induced cytopathic effect.

In data set [5] the test system is Coxsackie B3 virus (strain Nancy). Description: Anti-coxsackie virus assay, cytopathic effect in Vero cells (MTS). It is filed as cell-based. Particulars: Enterovirus B, Table 13, reduction of virus (CBV-3 Nancy strain)-induced cytopathic effect in Vero cells by 50%. The method, then: as §3, §4
Background: Protection from cytopathic effect is a common read-out in antiviral testing.

A further data set relates to BVDV (strain NADL). Format: cell-based, Bovine Viral Diarrhea Virus. To be noted: GPJN22-resistant BVDV (F224S). Here is the method:
Wild type BVDV (strain NADL) was twice plaque purified on MDBK cells. The entire coding region of the genome of this virus was sequenced. This plaque purified and sequenced virus was then cultured in the presence of increasing drug concentrations of compound (GPJN22). Following 12 passages, the virus was at least 25 fold resistant to compound GPJN22. The resistant virus preparation was again plaque purified. The entire coding region of the genome of this virus was sequenced. A mutation F224S in the RNA dependent RNA polymerase gene of the virus was detected in 4 out of 4 clones of this virus; no other mutations were detected in the resistant viruses. The GPJN22-resistant virus was cross-resistant with VP32947 (see Table 8). VP32947 is an earlier reported selective inhibitor of BVDV replication [Baginski S G et al., Proc Natl Acad Sci USA. 2000 Jul. 5; 97(14):7981-6]. In VP32947-resistant BVDV, a similar mutation was identified as being responsible for the drug-resistance. To confirm that the F224S mutation is indeed responsible for the resistant phenotype, the mutation was reintroduced by site-directed mutagenesis in an full-length infectious clone of the BVDV (strain NADL) [Vassilev et al., J. Virol. 1997 January; 71(1):471-8.].

Where [6] appears, read: Bovine viral diarrhea virus isolates and strains, Table 9, BVDV strain PE515, mean of 2-5 determinations, read-out: EC50.
The mark [7] stands for this setting: Bovine viral diarrhea virus isolates and strains, Table 10, read-out: EC50.

Usually CC50 stands for the concentration at which the toxic effect on the cells reaches its halfway point. A low value points to harm at low concentration. As a reminder, the EC50 is the concentration needed to bring the measured effect to its halfway point. Consider `CC(C)(C)c1ccc(Cn2ccc3nc(-c4ccccc4)nc-3c2)cc1` [GPJN-16, 5-[[4-(1,1-Dimethylethyl)phenyl]methyl]-2-phenyl-5H-imidazo[4,5-c]pyridine], for which the CC50 at 72 hours in data set [1] came to 3 µg/mL (≈ 8.79 µM). The CC50 at 3 days in [2] was 8.1 µg/mL (≈ 23.7 µM). For the same molecule, the 50% effective concentration (EC50) in the data set with BVDV-1 (strain PE515) (setting [6]) turned out to be 0.246 µg/mL (≈ 0.72 µM); in [3] it was 1 µg/mL (≈ 2.93 µM).

Turning to `Brc1ccc(Cn2ccc3nc(-c4ccccn4)nc-3c2)cc1` [GPJN-58, 5-[(4-Bromophenyl)methyl]-2-(2-pyridinyl)-5H-imidazo[4,5-c]pyridine], the CC50 at 72 hours in [1] is 2 µg/mL (≈ 5.48 µM). Besides, the half-maximal cytotoxic concentration (CC50) at 3 days in data set [2] stood at 8.1 µg/mL (≈ 22.2 µM). Moreover, the EC50 in the data set with BVDV-1 (strain PE515) (setting [6]) is 0.052 µg/mL (≈ 0.142 µM); in [3] it was 0.13 µg/mL (≈ 0.356 µM). In addition, the “Delta CT” value in [4] (0.0016 ug/ml) worked out at 0.05; in data set [4] (0.008 ug/ml) it was 0.89; in data set [4] (0.04 ug/ml), 1.03; in data set [4] (0.2 ug/ml), 1.14; in [4] (1 ug/ml), 4. Moreover, the CT in [4] (0.0016 ug/ml) amounted to 28.91; in data set [4] (0.008 ug/ml), 29.75; in [4] (0.04 ug/ml), 29.89; in [4] (0.2 ug/ml) it was 30.00; in data set [4] (1 ug/ml) it was 32.86.

Regarding `Brc1ccc(Cn2ccc3nc(-c4cccc5ccccc45)nc-3c2)cc1` [GPJN-62, 5-[(4-Bromophenyl)methyl]-2-(1-naphthalenyl)-5H-imidazo[4,5-c]pyridine], it took 6 µg/mL (≈ 14.5 µM) to reach half-maximal cytotoxicity in data set [1] (CC50 at 72 hours). The CC50 at 3 days in data set [2] amounted to 9.4 µg/mL (≈ 22.7 µM). The results for the EC50 (in the data set on BVDV-1 (strain PE515) (setting [6]); in [3]) were 0.12 µg/mL (≈ 0.29 µM) and less than 0.62 µg/mL, respectively.

In data set [1], `FC(F)(F)c1cccc(-c2nc3ccn(Cc4ccc(Br)cc4)cc-3n2)c1` [GPJN-87, 5-[(4-Bromophenyl)methyl]-2-[3-(trifluoromethyl)phenyl]-5H-imidazo[4,5-c]pyridine] showed a CC50 at 72 hours of 20 µg/mL (≈ 46.3 µM). In [3], this molecule yielded an EC50 of less than 0.62 µg/mL.

Consider `Clc1c2nc(-c3ccccc3)nc-2ccn1Cc1ccc(Br)cc1` [GPJN-96, 5-[(4-Bromophenyl)methyl]-4-chloro-2-phenyl-5H-imidazo[4,5-c]pyridine], for which, in [1], it took 4 µg/mL (≈ 10 µM) to reach half-maximal cytotoxicity (CC50 at 72 hours). The EC50 in data set [3] turned out to be 1 µg/mL (≈ 2.51 µM).

Molecule `Fc1ccccc1-c1nc2ccn(Cc3ccc(Cl)cc3)cc-2n1` [GPJN-112, 5-[(4-Chlorophenyl)methyl]-2-(2-fluorophenyl)-5H-imidazo[4,5-c]pyridine] had a CC50 at 72 hours in data set [1] of more than 17 µg/mL. Moreover, the “MTC” value in the data set on MDBK cells came out at 20 µg/mL. Besides, the EC50 with BVDV-1 (strain PE515) (setting [7]) is 0.0049 µg/mL (≈ 0.0145 µM); in [3], 0.29 µg/mL (≈ 0.859 µM).

With `Fc1ccccc1-c1nc2ccn(Cc3ccc(I)cc3)cc-2n1` [GPJN-113, 2-(2-Fluorophenyl)-5-[(4-iodophenyl)methyl]-5H-imidazo[4,5-c]pyridine], the half-maximal cytotoxic concentration (CC50) at 72 hours in data set [1] stood at 14 µg/mL (≈ 32.6 µM). In addition, the “MTC” value with MDBK cells worked out at 20 µg/mL. The EC50 was determined as 0.0031 µg/mL (≈ 0.00722 µM) in the data set with BVDV-1 (strain PE515) (setting [7]) and 0.17 µg/mL (≈ 0.396 µM) in data set [3].

By melting point is commonly meant the temperature, or range, at which the solid turns liquid. Turning to `Fc1cccc(F)c1Cn1ccc2nc(-c3c(F)cccc3F)nc-2c1` [GPRTI-8, 2-(2,6-Difluorophenyl)-5-[(2,6-difluorophenyl)methyl]-5H-imidazo[4,5-c]pyridine], the melting point was in the range of 195 to 197 °C. In data set [2], this molecule came in with a cytotoxic concentration (CC50) at 3 days of more than 79 µg/mL. Also, in the data set with BVDV-1 (strain PE515) (setting [6]), the EC50 was found to be 0.137 µg/mL (≈ 0.383 µM). Moreover, the “TC50” value in the data set on Vero cells is more than 100 µg/mL. Also, the EC50 in data set [5] was 12.2 µg/mL (≈ 34.1 µM).

For `CCCN(CCC)CCSc1nnc2c(n1)[nH]c1ccccc12` [VP32947, 3-[((2-dipropylamino)ethyl)thio]-5H-1,2,4-triazino[5,6-b]indole, reference compound], the half-maximal cytotoxic concentration (CC50) in the data set with MDBK cells (Table 9, reduction of growth of exponentially growing MDBK cells by 50%, mean of 2-5 determinations) worked out at 47 µg/mL (≈ 143 µM). In the data set with BVDV-1 (strain PE515) (Table 9, BVDV strain PE515, mean of 2-5 determinations), the “EC50” value was 0.003 µg/mL (≈ 0.00911 µM). The “cross-resistance of the GPJN22-resistant virus” value in the data set on BVDV (strain NADL) was “cross-resistant”.
